These results are taken from patent US20100009922A1, “HYPOTENSIVE PEPTIDES FROM SOY PROTEINS AND METHOD OF PREPARATION” (priority 2008, published 2010).

As a reminder, the IC50 is the concentration that inhibits the measured activity by half.

Where no end group is shown, it is not given here.

This assay has as its target T1, rabbit lung angiotensin converting enzyme (Oryctolagus cuniculus, UniProt P12822).
T1 construct: rabbit lung angiotensin converting enzyme (Sigma Chemical Company, St. Louis, Mo.); purchased Sigma Chemical Company, St. Louis, Mo; host or cells: rabbit lung (tissue-derived enzyme)
T1 sequence (P12822 34-1310): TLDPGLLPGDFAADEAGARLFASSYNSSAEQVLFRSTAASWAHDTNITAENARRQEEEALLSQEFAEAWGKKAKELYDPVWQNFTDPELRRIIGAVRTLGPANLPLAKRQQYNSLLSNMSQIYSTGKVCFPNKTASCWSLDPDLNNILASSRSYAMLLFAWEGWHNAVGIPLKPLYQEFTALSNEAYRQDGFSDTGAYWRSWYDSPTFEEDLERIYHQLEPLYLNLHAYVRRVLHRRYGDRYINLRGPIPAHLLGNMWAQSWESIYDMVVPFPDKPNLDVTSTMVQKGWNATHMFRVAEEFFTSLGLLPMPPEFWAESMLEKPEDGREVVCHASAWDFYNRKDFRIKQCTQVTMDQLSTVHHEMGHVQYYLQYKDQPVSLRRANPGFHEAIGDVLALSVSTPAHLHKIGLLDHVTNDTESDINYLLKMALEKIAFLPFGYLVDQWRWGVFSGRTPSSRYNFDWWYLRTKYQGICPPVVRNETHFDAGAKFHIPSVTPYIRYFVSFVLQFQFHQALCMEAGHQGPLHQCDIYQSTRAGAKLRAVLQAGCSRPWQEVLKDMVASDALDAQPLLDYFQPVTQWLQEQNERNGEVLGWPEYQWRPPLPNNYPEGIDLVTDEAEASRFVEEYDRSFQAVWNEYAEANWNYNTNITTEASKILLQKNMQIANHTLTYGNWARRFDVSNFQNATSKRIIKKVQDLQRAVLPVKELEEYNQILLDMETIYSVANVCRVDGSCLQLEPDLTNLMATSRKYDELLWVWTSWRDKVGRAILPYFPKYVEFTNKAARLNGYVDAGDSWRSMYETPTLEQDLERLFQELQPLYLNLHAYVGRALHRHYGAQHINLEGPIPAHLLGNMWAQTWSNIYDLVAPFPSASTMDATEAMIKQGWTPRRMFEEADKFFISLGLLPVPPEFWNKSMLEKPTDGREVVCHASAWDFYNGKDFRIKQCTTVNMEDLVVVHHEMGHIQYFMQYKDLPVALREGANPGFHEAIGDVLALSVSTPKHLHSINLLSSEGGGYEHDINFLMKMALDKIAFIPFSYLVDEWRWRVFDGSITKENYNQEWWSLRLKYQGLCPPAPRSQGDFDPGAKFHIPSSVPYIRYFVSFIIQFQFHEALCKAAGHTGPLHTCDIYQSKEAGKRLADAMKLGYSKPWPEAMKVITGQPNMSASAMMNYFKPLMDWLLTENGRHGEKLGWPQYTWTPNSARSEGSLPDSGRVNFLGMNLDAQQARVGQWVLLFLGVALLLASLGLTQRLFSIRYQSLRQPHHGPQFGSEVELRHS
The experiment in a line: ACE inhibitory activity, FAPGG substrate. Format: biochemical. The note with it: synthetic peptides, 37° C., 30 minutes, read-out: ACE Inhibition (IC50). The procedure:
Angiotensin-I-converting enzyme inhibitory activity was determined using FAPGG as the substrate. A mixture containing 100 μl of 1 mM FAPGG, 20 μl of the soy peptide solution, and 80 μl of reaction solution (100 mM Tris-HCl, pH 8.3, containing 0.3 M NaCl, 10 mM ZnCl2, and 0.025 U/ml rabbit lung angiotensin converting enzyme (Sigma Chemical Company, St. Louis, Mo.)) was added to a 96-well plate. The reaction was carried out at 37° C. for 30 minutes and the absorbance of the mixture was read using a spectrophotometry set at 340 nm to determine the enzyme activity. 20 μl of distilled water was used in the place of the soy peptide solution in each assay as a negative control. The inhibitory potency (IC50) of each fraction of the soy peptides was determined from plots of percentage inhibition vs. log 10[soy peptide] (mg/L). IC50 value of Angiotensin-I-converting enzyme, defined as the amount of soy peptide that produced a 50% inhibition of ACE activity, was determined for selected fractions. Captopril was used as the positive control.
Take IPRPRPRP [IP-8, IPRPRPRP]: the half-inhibitory concentration (IC50) was 7.2 ± 1.7 µM.
The figure for LKPDNR [LR-6, LKPDNR] is 121 ± 1.7 µM.
The figure for PIPFP [PP-5, PIPFP] is 66 ± 15.3 µM; for PVNKP [PP-5-1, PVNKP] it is 46.1 ± 5.2 µM.
